Experiments:
[1] = In vitro stability (half-life) in human plasma; type: in vitro ADME; settings: male, pH 7.4, human plasma pH 7.4, anticoagulant, 37° C., read-out: T1/2 (minutes) Human
Experimental: Compound (1), compound (2), and CXL-1020 were tested for their stability in plasma. The assay system comprised (i) PBS, or plasma from rat, dog or human (at least 3 donors, male, pooled) at pH 7.4, and (ii) for tests conducted in plasma, an anticoagulant (sodium heparin or sodium citrate). Each test compound (5 μM) was incubated in PBS or plasma at 37° C. on a THERMOMIXER® with shaking Three samples (n=3) were taken at each of seven sampling time points: 0, 10, 30, 60, 90, 180 and 360 minutes. The samples were immediately combined with 3 volumes (i.e., 3 times the volume of PBS or plasma) of acetonitrile containing 1% formic acid and an internal standard to terminate the reaction. AB SCIEX API 3000 LC-MS/MS analysis of the test compounds was performed without a standard curve. Half-lives (T1/2) of the test compounds were determined from graphs of the percent remaining values using the peak area response ratio.

beagle dogs = assay: 24-hour continuous infusion, canine peripheral (cephalic) vein model, clinical pathology; type: in vivo; settings: for NOAEL (μg/kg/min), clinical pathology markers: 24 hour i.v. infusion, CAPTISOL 7% w/v pH 4, WBC, fibrinogen, CRP, molar equivalent dose rates to CXL-1020
Experimental: After 24 hours of infusion, clinical pathology changes similar to those observed in previous studies using an implanted central catheter were detected.
Studies were conducted in male and female beagle dogs. Animals were allowed free access to drinking water and a commercial canine diet under standard laboratory conditions. Animals were fasted prior to blood sample collections when indicated by the study protocol. Fluorescent lighting was provided via an automatic timer for approximately 12 hours per day. On occasion, the dark cycle was interrupted intermittently due to study-related activities. Temperature and humidity were monitored and recorded daily and maintained to the maximum extent possible between 64° F. to 84° F. and 30% to 70%, respectively. The dogs were acclimated for a period of at least 1 week. During this period, the animals were weighed weekly and observed with respect to general health and any signs of disease. The animals were acclimated to wearing a jacket for at least three days prior to dose administration. Additionally, the animals were also acclimated to wearing an Elizabethan collar (e-collar) during the jacket acclimation.
Animals were catheterized the day prior to dose administration. A percutaneous catheter was placed (using aseptic technique and sterile bandaging) in the cephalic vein distal to the elbow. The animals were free-moving in their cages during continuous infusion dose administration. To facilitate continuous infusion dose administration, the peripheral catheter was attached to an extension set routed underneath a canine jacket and then attached to a tether infusion system. To prevent the animals from accessing/removing the peripherally placed percutaneous catheter, the catheterization site was bandaged using Vet Wrap and an e-collar was placed on the animals for the duration of the treatment (i.e., the catheterized period). During the pretreatment period, the venous catheter was infused continuously at a rate of approximately 2-4 mL/hr with 0.9% sodium chloride for injection, USP (saline) to maintain catheter patency. Prior to dosing, the infusion system was pre-filled (slow bolus infusion) with the respective dosing solution to ensure that dosing began as soon as the infusion pump was started. The infusion line was connected to a reservoir containing the control or test compound and the infusion was started. Test compositions were infused continuously, at a predetermined constant infusion rate (1 or 2 mL/kg/hr), for 24 hours and were compared at molar equivalent dose rates.
A detailed clinical examination of each animal was performed twice daily and body temperature measurements and blood samples for clinical pathology were collected from all animals pre-dose and 6 hours, 12 hours, 24 hours and 72 hours post start of composition infusion. At the termination of the study, all animals were euthanized at their scheduled necropsy and complete necropsy examinations were performed. Selected tissues were collected, fixed and stored for potential future microscopic examination. The cephalic vein containing the infusion catheter was dissected intact along with the brachial vein and examined along its entire length. The location of the catheter tip was marked on the unfixed specimen. […]

[2] = dogs, percutaneous catheter in cephalic vein

| Structure (SMILES) | half-life at 5 μM [1] [min] | NOAEL (μg/kg/min), clinical pathology markers (beagle dogs; dogs) [μg/kg/min] | finding after 6 hours of infusion (beagle dogs; [2]) | microscopic pathology after 24 hours of infusion (beagle dogs; [2]) | improvement in NOAEL relative to CXL-1020 (beagle dogs; clinical pathology markers) [fold] |
| --- | --- | --- | --- | --- | --- |
| CS(=O)(=O)c1ccccc1S(=O)(=O)NO [CXL-1020, N-hydroxy-2-methanesulfonylbenzene-1-sulfonamide] | 2 | <0.03 | significant edema was observed in the upper forelimb | severe thrombophlebitis at the catheter tip |  |
| Cc1ccc(S(=O)(=O)NO)o1 [Compound (1), N-Hydroxy-5-methylfuran-2-sulfonamide] | ~65 |  |  |  | > 660 |
| CS(=O)(=O)c1cccc(S(=O)(=O)NO)c1 [(2), N-Hydroxy-3-methanesulfonylbenzene-1-sulfonamide] | ~37 | 3 |  |  |  |
